# Laboratory results as given in the supplement of paper PMC10307832.
# Columns and labels:
# Assay in all cases: relative viability (nuclei count vs DMSO), 5 days (fraction); higher = more cells survive
# [1] = compound: CC1=C(N=C(N=C1N)[C@H](CC(=O)N)NC[C@@H](C(=O)N)N)C(=O)N[C@@H]([C@H](C2=CN=CN2)OC3C(C(C(C(O3)CO)O)O)OC4C(C(C(C(O4)CO)O)OC(=O)N)O)C(=O)N[C@H](C)[C@H]([C@H](C)C(=O)N[C@@H]([C@@H](C)O)C(=O)NCCC5=NC(=CS5)C6=NC(=CS6)C(=O)NCCC[S+](C)C)O [Bleomycin] + CC(=O)Nc1cccc(-n2c(=O)n(C3CC3)c(=O)c3c(Nc4ccc(I)cc4F)n(C)c(=O)c(C)c32)c1 [Trametinib] (partner 0.02 µM); conditions: main component drawn
# Procedure, shortened: (§1)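 Five library-drug doses in √10 steps were combined with a fixed anchor-drug dose, or a single drug was given alone, by pin tool to lung cancer cell lines in 1536-well plates the day after seeding. Nuclei were stained and counted after 5 days. Relative viability is the nuclei count in treated wells over that in vehicle wells, taken as the median of duplicate plates.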
# [2] = compound: CC1=C(N=C(N=C1N)[C@H](CC(=O)N)NC[C@@H](C(=O)N)N)C(=O)N[C@@H]([C@H](C2=CN=CN2)OC3C(C(C(C(O3)CO)O)O)OC4C(C(C(C(O4)CO)O)OC(=O)N)O)C(=O)N[C@H](C)[C@H]([C@H](C)C(=O)N[C@@H]([C@@H](C)O)C(=O)NCCC5=NC(=CS5)C6=NC(=CS6)C(=O)NCCC[S+](C)C)O [Bleomycin] + CC(C)C[C@H](NC(=O)[C@H](Cc1ccccc1)NC(=O)c1cnccn1)B(O)O [Bortezomib] (partner 0.002 µM); conditions: main component drawn
# Procedure, shortened: as §1
# [3] = compound: COc1cc([C@@H]2c3cc4c(cc3[C@@H](O[C@@H]3O[C@@H]5CO[C@@H](C)O[C@H]5[C@H](O)[C@H]3O)[C@H]3COC(=O)[C@H]23)OCO4)cc(OC)c1O [Etoposide] + Cc1cc(Nc2cc(N3CCN(C)CC3)nc(Sc3ccc(NC(=O)C4CC4)cc3)n2)n[nH]1 [Tozasertib] (partner 0.1 µM)
# Procedure, shortened: as §1
# [4] = compound: COc1cc([C@@H]2c3cc4c(cc3[C@@H](O[C@@H]3O[C@@H]5CO[C@@H](C)O[C@H]5[C@H](O)[C@H]3O)[C@H]3COC(=O)[C@H]23)OCO4)cc(OC)c1O [Etoposide] + CC1(C)CCC(c2ccc(Cl)cc2)=C(CN2CCN(c3ccc(C(=O)NS(=O)(=O)c4ccc(N[C@H](CCN5CCOCC5)CSc5ccccc5)c(S(=O)(=O)C(F)(F)F)c4)cc3)CC2)C1 [Navitoclax] (partner 0.5 µM)
# Procedure, shortened: as §1
cell line,measurement,setting,value
UMC-11,relative viability,[1]; first compound 0.01 µM,0.653
same,relative viability,[1]; first compound 0.03162 µM,0.652
same,relative viability,[1]; first compound 0.1 µM,0.774
same,relative viability,[1]; first compound 0.3162 µM,0.632
same,relative viability,[1]; first compound 1 µM,0.345
same,relative viability,[2]; first compound 0.01 µM,0.626
same,relative viability,[2]; first compound 0.03162 µM,0.587
same,relative viability,[2]; first compound 0.1 µM,0.576
same,relative viability,[2]; first compound 0.3162 µM,0.477
same,relative viability,[2]; first compound 1 µM,0.304
same,relative viability,[3]; first compound 0.01 µM,0.209
same,relative viability,[3]; first compound 0.03162 µM,0.205
same,relative viability,[3]; first compound 0.1 µM,0.186
same,relative viability,[3]; first compound 0.3162 µM,0.206
same,relative viability,[3]; first compound 1 µM,0.235
same,relative viability,[4]; first compound 0.01 µM,0.344
same,relative viability,[4]; first compound 0.03162 µM,0.307
same,relative viability,[4]; first compound 0.3162 µM,0.193
same,relative viability,[4]; first compound 1 µM,0.155
